For orientation: IC50 means the concentration at which inhibition is half-maximal.

The experiment has as its target T1, recombinant, human protein tyrosine phosphatase (PTP) 1B (hPTP1B) (Homo sapiens, UniProt P18031).
T1 construct: made in house
T1 sequence (P18031 1-435): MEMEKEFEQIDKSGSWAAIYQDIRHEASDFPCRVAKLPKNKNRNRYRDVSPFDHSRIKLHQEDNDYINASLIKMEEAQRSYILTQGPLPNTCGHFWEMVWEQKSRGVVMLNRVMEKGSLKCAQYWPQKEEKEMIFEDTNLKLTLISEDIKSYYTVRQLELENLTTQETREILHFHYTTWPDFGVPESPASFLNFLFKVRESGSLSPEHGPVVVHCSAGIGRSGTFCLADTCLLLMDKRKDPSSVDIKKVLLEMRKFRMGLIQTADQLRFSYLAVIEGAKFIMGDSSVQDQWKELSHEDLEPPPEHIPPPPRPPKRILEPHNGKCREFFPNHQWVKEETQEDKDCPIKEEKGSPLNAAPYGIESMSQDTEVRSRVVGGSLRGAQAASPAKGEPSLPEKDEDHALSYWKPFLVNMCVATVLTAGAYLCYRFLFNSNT
Nature of the experiment: Inhibition of tri-phosphorylated insulin receptor dodecaphosphopeptide dephosphorylation by hPTP1B. The experiment is classed as biochemical. To be noted: 50 μM IR triphosphopeptide substrate, 5 min preincubation and 5 min reaction at 37° C., malachite green-ammonium molybdate phosphate detection.

Where a name gives a salt, the structure may show the parent alone.

Take `CCCCCCCCCCCCNC(=O)c1cc(-c2cccc(Cl)c2)c(OCC(=O)O)c(-c2cccc(Cl)c2)c1` [Example 1, (3,3″-Dichloro-5′-dodecylcarbamoyl-[1,1′;3′,1″]terphenyl-2′-yloxy)-acetic acid]: the IC50 turned out to be 63 nM. For `CCCCCCCCCCCCNC(=O)c1cc(Br)c(OCC(=O)O)c(-c2cccc(Cl)c2)c1` [Example 2, (3-Bromo-3′-chloro-5-dodecylcarbamoyl-biphenyl-2-yloxy)acetic acid], the IC50 amounted to 183 nM. To `O=C(O)COc1c(-c2cccc(Cl)c2)cc(C(=O)NCCCCCCCCc2ccccc2)cc1-c1cccc(Cl)c1` [Example 3, [3,3″-Dichloro-5′-(8-phenyl-octylcarbamoyl)-[1,1′;3′,1″]terphenyl-2′-yloxy]-acetic acid] belongs 111 nM; to `CCCCCCCCCCCCNC(=O)c1cc(-c2cccc(Cl)c2)c(OCCOCC(=O)O)c(-c2cccc(Cl)c2)c1` [Example 12], 15 nM; to `CCCCCCCCCCCCNC(=O)c1cc(-c2ccc(F)c(Cl)c2)c(OCC(=O)O)c(-c2ccc(F)c(Cl)c2)c1` [Example 24, (3,3″-Dichloro-5′-dodecylcarbamoyl-4,4″-difluoro[1,1′;3′,1″]terphenyl(-2′-yloxy)-acetic acid sodium salt], 44 nM. To `O=C(O)COc1c(-c2ccc(F)c(Cl)c2)cc(C(=O)NCCCCCCCCc2ccccc2)cc1-c1ccc(F)c(Cl)c1` [Example 25, [3,3″-Dichloro-4-4″difluoro-5′-(8-phenyl-octylcarbamoyl)[-1,1′;3′,1″]terphenyl-2′-yloxy]-acetic acid] belongs 123 nM; to `CCCCCCCCCCCCNC(=O)c1cc(Br)c(OCC(=O)O)c(-c2ccc(OC)cc2)c1` [Example 31, (3-Bromo-5-dodecylcarbamoyl-4′-methoxy-biphenyl-2-yloxy)-acetic acid], 203 nM; to `CCCCCCCCOc1cc(-c2cccc(OC)c2)c(OCC(=O)O)c(-c2cccc(OC)c2)c1` [Example 50, (3,3″-Dimethoxy-5′-octyloxy-[1,1′;3′,1″]terphenyl-2′-yloxy)acetic acid], 254 nM. In the case of `O=C(O)COc1c(-c2cccc(C(F)(F)F)c2)cc(C(=O)NCCCCCCCCc2ccccc2)cc1-c1ccccc1F` [Example 108, [2″-Fluoro-5′-(8-phenyl-octylcarbamoyl)-3-trifluoromethyl-[1,1′;3′,1″]terphenyl-2′-yloxy)-acetic acid], the IC50 worked out at 450 nM. The figure for `CCCCCCCCCCCCNC(=O)c1cc(-c2cccc(C(F)(F)F)c2)c(OCC(=O)O)c(-c2ccccc2F)c1` [Example 109, (5′-Dodecylcarbamoyl-2″-fluoro-3-trifluoromethyl-[1,1′;3′,1″]terphenyl-2′-yloxy)-acetic acid] is 187 nM; for `CCCCCCCCCCCCNC(=O)c1cc(-c2ccccc2F)c(OCC(=O)O)c(-c2ccccc2F)c1` [Example 110, (5′-Dodecylcarbamoyl-2,2″-difluoro-[1,1′;3′,1″]terphenyl-2′-yloxy)-acetic acid] it is 300 nM; for `O=C(O)COc1c(-c2ccccc2F)cc(C(=O)NCCCCCCCCc2ccccc2)cc1-c1ccccc1F` [Example 111, [2,2″-Difluoro-5′-(8-phenyl-octylcarbamoyl)-[1,1′;3′,1″]terphenyl-2′-yloxy)-acetic acid] it is 700 nM. Take `CCCCCCCCCCCCNC(=O)c1cc(-c2cccc(Cl)c2)c(OCC(=O)O)c(-c2ccccc2F)c1` [Example 114, (3″-Chloro-5′-dodecylcarbamoyl-2-fluoro-[1,1′;3′,1″]terphenyl-2′-yloxy)-acetic acid]: the half-inhibitory concentration (IC50) came to 55 nM. To `O=C(O)COc1c(-c2cccc(Cl)c2)cc(C(=O)NCCCCCCCCc2ccccc2)cc1-c1ccccc1F` [Example 115, [3″-Chloro-2-fluoro-5′-(8-phenyl-octylcarbamoyl)-[1,1′;3′,1″]terphenyl-2′-yloxy]-acetic acid] belongs 287 nM; to `CN(CCCCCCCCc1ccccc1)C(=O)c1cc(-c2ccccc2F)c(OCC(=O)O)c(-c2ccccc2F)c1` [Example 118, {2,2″-Difluoro-5′-[methyl-(8-phenyl-octyl)-carbamoyl]-[1,1′;3′,1″]terphenyl-2′-yloxy}-acetic acid], 423 nM; to `O=C(O)COc1c(-c2cccc(Cl)c2)cc(C(=O)NCCCCCCCC[S+]([O-])c2ccc(Cl)cc2)cc1-c1cccc(Cl)c1` (stereo not shown) [Example 119, {3,3″-Dichloro-5′-[8-(4-chloro-benzenesulfinyl)-octylcarbamoyl]-[1,1′;3′,1″]terphenyl-2′-yloxy}-acetic acid], 627 nM. To `O=C(O)COc1c(-c2cccc(Cl)c2)cc(C(=O)NCCCCCCCCOc2ccc(F)cc2F)cc1-c1cccc(Cl)c1` [Example 120, {3,3″-Dichloro-5′-[8-(2,4-difluoro-phenoxy)-octylcarbamoyl]-[1,1′;3′,1″]terphenyl-2′-yloxy}-acetic acid] belongs 53 nM; to `O=C(O)COc1c(-c2cccc(Cl)c2)cc(C(=O)NCCCCCCCCCCCCOc2ccc(F)cc2F)cc1-c1cccc(Cl)c1` [Example 121, {3,3″-Dichloro-5′-[12-(2,4-difluoro-phenoxy)-dodecylcarbamoyl]-[1,1′;3′,1″]terphenyl-2′-yloxy}-acetic acid], 15 nM; to `O=C(O)COc1c(-c2cccc(Cl)c2)cc(C(=O)NCCCCCCCCOCc2ccc(C(F)(F)F)cc2)cc1-c1cccc(Cl)c1` [Example 122, {3,3″-Dichloro-5′-[8-(4-trifluoromethyl-benzyloxy)-octylcarbamoyl]-[1,1′;3′,1″]terphenyl-2′-yloxy}-acetic acid], 92 nM. Turning to `O=C(O)COc1c(-c2cccc(Cl)c2)cc(C(=O)N(C2CCCCC2)C2CCCCC2)cc1-c1cccc(Cl)c1` [Example 124, (3,3″-Dichloro-5′-dicyclohexylcarbamoyl-[1,1′;3′,1″]terphenyl-2′-yloxy)-acetic acid], the IC50 was 595 nM. To `O=C(NCCCCCCCc1ccccc1)c1cc(-c2cccc(C(F)(F)F)c2)c(OCP(=O)(O)O)c(-c2cccc(C(F)(F)F)c2)c1` [Example 128, [5′-(7-Phenyl-heptylcarbamoyl)-3,3″-bis-trifluoromethyl-[1,1′:3′,1″]terphenyl-2′-yloxymethyl]-phosphonic acid] belongs 264 nM. Turning to `O=C(NCCCCCCCc1ccccc1)c1cc(-c2cccc(C(F)(F)F)c2)c(OCc2ccc(S(=O)(=O)O)cc2)c(-c2cccc(C(F)(F)F)c2)c1` [Example 130, 4-[5′-(7-Phenyl-heptylcarbamoyl)-3,3″-bis-trifluoromethyl-[1,1′3′,1″]terphenyl-2′-yloxymethyl]-benzenesulfonic acid], the IC50 came to 56 nM. `COc1ccc(-c2cc(-c3ccc(C(=O)NCCCCCCCc4ccccc4)cc3)cc(-c3ccc(OC)cc3)c2OCc2ccc(C(=O)O)cc2)cc1` [Example 133]: the IC50 was found to be 102 nM. To `O=C(O)c1ccc(COc2c(-c3cccc(C(F)(F)F)c3)cc(C(=O)NCCCCCCCc3ccccc3)cc2-c2cccc(C(F)(F)F)c2)cc1` [Example 134, 4-[5′-(7-Phenyl-heptylcarbamoyl)-3,3″-bis-trifluoromethyl-[1,1′:3′,1″]terphenyl-2′-yloxymethyl]-benzoic acid] belongs 57 nM.

Take `CCCCCCCCCCCCNC(=O)c1cc(Br)c(OCC(=O)O)c(-c2ccc(F)c(Cl)c2)c1` [Example 135, (3-Bromo-3′-chloro-5-dodecylcarbamoyl-4′-fluoro-biphenyl-2-yloxy)acetic acid]: the IC50 was determined as 130 nM.
